In one data set the test system is ERK. In words: Western blot, phosphorylation of ERK. The format is cell-based, mouse. The settings on record: low concentrations (0.1 & 1 mM). The procedure: (§1) To assess the phosphorlyation status of ERK, […] of whole cell lysates was loaded onto SDS-PAGE, and Western blot analysis was done using anti-p-ERK (Santa Cruz; E-4; sc-7383) and anti-ERK (Santa Cruz; K-23; sc-94) antibodies. To detect active RhoA, Rac1 and Cdc42, generated GST-tagged RhoA binding domain of Rhotekin protein (GST-Rhotekin-RBD) and GST-tagged p21-binding domain of p21-activated kinase 1 (PAK1)(GST-PAK1-PBD) were first generated. Briefly, E. coli BL21 cells transformed with pGEX4T-PAK1-PBD or pGEX4T-Rh,otekin-RBD were grown at 37° C. and expression of recombinant protein was induced by addition of 0.1 mM IPTG for 3 hours. Cells were resuspended in lysis buffer (50 mM Tris-HCl, pH 8.0, 10% glycerol, 20% sucrose, 2 mM DTT, 1 mg/ml leupeptin, 1 mg/ml pepstatin, and 1 mg/ml aprotinin), sonicated, and centrifuged at 4° C. for 30 min at 45,000 g. The supernatant was incubated with glutathione sepharose 4B beads (GE-Amersham, Piscataway, N.J.) for 1 hour at 4° C., and then washed 3 times in lysis buffer. Using these GST-proteins, GTPase activation assays were performed as described.
On the technique in general: Immunoblotting shows a protein as a band on a membrane.

The test system of another data set is c-Src. In words: Western blot, phosphorylation of c-Src. The format is cell-based, mouse. The settings on record: low concentrations (0.1 & 1 mM), 5 min. Here is the method: For the evaluation of phosphorylated FAK and c-Src, Western blot analyses were performed as described (15). Briefly, vascular smooth muscle cells were seeded on 10-cm dishes, treated with various concentrations of morelloflavone for 5 min, and harvested into RIPA buffer with protease inhibitor cocktails. Cleared cell lysates ([…] of protein) were incubated with anti-FAK or anti-c-Src antibodies at 4° C. for 1 hr in a final volume of 1 mL RIPA buffer, and incubated for another 1 hr with protein A/G agarose beads (Santa Cruz; SCBT sc-2003). Immunoprecipitated proteins were eluted into SDS-loading 7 buffer and subjected to 12% SDS-PAGE and immunoblotting using anti-FAK (Santa Cruz; A-17; sc-557) and anti-c-Src (Santa Cruz; SRC-2; sc-18) antibodies for total FAK and c-Src, respectively, and anti-phosphotyrosine antibody (Santa Cruz; PY-20; sc-508) for phosphorylated FAK and c-Src. Densitometric analyses were performed using Adobe Photoshop (Adobe Systems Incorporated, San Jose, Calif.).

The test system of a further data set is Cdc42. Kind of data set: GTPase activation assay, Cdc42. The format is cell-based, mouse. Further details: dose or concentration left out as unconfirmed. Here is the method:
as §1, with “described. […]” for “described.”

Data set [1] concerns vascular smooth muscle cells. Kind of data set: MTT cell death (viability) assay. The format is cell-based, mouse. Also noted: dose or concentration left out as unconfirmed. The settings on record: 48 hrs. The procedure: Mouse vascular smooth muscle cells, isolated as described (13), were maintained in 231 media (Cascade Biologics, Portland, Oreg.) supplemented with SMGS (Cascade Biologics) in a humidified incubator at 37° C. with 5% CO2. Cells from passages 4-9 were used in all experiments. All experiments were performed in subconfluent, unsynchronized cells growing in SMGS except for the lamellipodium formation assay. Vascular smooth muscle cells were plated at 1×10^4 cells per well in 96-well culture plates and incubated overnight. The cells were treated with various concentrations of morelloflavone for 48 hrs. Then, the cells were exposed to MTT labeling reagent at 10 mg/mL for 4 hrs and solubilized in 0.01 N HCl containing 10% SDS overnight. Formed formazan was measured via spectrophotometry at 600 nm.

For data set [2], the system named is vascular smooth muscle cells. Kind of data set: Scratch wound cell migration assay. The format is cell-based, mouse. The settings on record: for migration index: 18 hrs. The procedure: Mouse vascular smooth muscle cells, isolated as described (13), were maintained in 231 media (Cascade Biologics, Portland, Oreg.) supplemented with SMGS (Cascade Biologics) in a humidified incubator at 37° C. with 5% CO2. Cells from passages 4-9 were used in all experiments. All experiments were performed in subconfluent, unsynchronized cells growing in SMGS except for the lamellipodium formation assay.
Vascular smooth muscle cells that had been grown to confluence in 6-well culture plates were scratched with a sterile […] pipette tip and exposed to various concentrations of morelloflavone. The cells were allowed to migrate onto the plastic surface for 18 hrs and photographed. A migration index was determined based on the number of cells that migrated onto 1 mm^2 free plastic surface, using the Image J software (NIH).

The nature of data set [3]: Body weight in atherosclerosis study. It counts as in vivo, mouse. The procedure: Twenty four (24) 8 week old Ldlr^−/−Apobec1^−/− mice were randomly assigned to either control group (normal rodent chow, Lab Diet, Richmond, Ind., N=12) or morelloflavone group (normal rodent chow supplemented with 0.003% (w/w) morelloflavone, N=12). The 0.003% (w/w) morelloflavone corresponds to approximately 4 mg/kg morelloflavone for 30 gram animals that consume 4 grams of chow. Animals were housed individually in an air-conditioned room with 12-h light/dark cycle with access to food and water. Body weight of these mice was monitored monthly. After 8 months, animals were sacrificed for analyses of atherosclerosis. Just prior to the sacrifice, blood was sampled from the heart and collected into micro-centrifuge tubes containing EDTA. The entire aortae were excised. All animal experimentation protocols were performed according to the protocol approved by the Institutional Animal Care and Use Committee (IACUC) of the University of Texas Health Science Center at Houston, in accordance with the National Institutes of Health guidelines.

“Also recorded” adds a separate entry of the source. Read-outs that look alike come from different tables or passages of the source.

Take `O=C1c2c(O)cc(O)cc2O[C@H](c2ccc(O)cc2)[C@H]1c1c(O)cc(O)c2c(=O)cc(-c3ccc(O)c(O)c3)oc12` [morelloflavone, 5,7, 4′, 5″, 7″, 3″, 4″-heptahydroxy-[3,8″]-flavonylflavanone]: in the data set on ERK, the “phosphorylation of ERK” value is given as “inhibited; also recorded: robustly decreased phosphorylation; also recorded: blocks”. Moreover, the “phosphorylation of c-Src” value with c-Src is “inhibited; also recorded: robustly decreased phosphorylation; also recorded: blocks”. Also, the “activation of Cdc42” value is “blocks the activation” with Cdc42 and “no significant effect; also recorded: without affecting” with Cdc42 (concentration not given). Moreover, in data set [1], the “cytotoxicity / cell survival (MTT)” value is on record as “no cytotoxicity; also recorded: does not affect; also recorded: not cytotoxic; also recorded: does not induce cytotoxicity”. The “effect on vascular smooth muscle cell migration” value in data set [2] (0-100 mM, effect from 1 mM (1 μM)) is recorded as “inhibited in a dose-dependent fashion; also recorded: profound effects on migration; also recorded: blocks”. Moreover, the migration index in data set [2] (1 mM morelloflavone) was 487.6±36.9 cells/mm^2; in data set [2] (10 mM morelloflavone), 411.3±39.5 cells/mm^2; in data set [2] (100 mM morelloflavone), 191.86±32.8 cells/mm^2. Further, the Body weight was found to be 22.6 ± 1.5 gm in data set [3] (1 month); 24.0 ± 1.6 gm in data set [3] (2 months); 25.4 ± 1.5 gm in data set [3] (3 months); 26.2 ± 1.5 gm in data set [3] (4 months); 26.8 ± 1.3 gm in data set [3] (5 months); 27.5 ± 1.7 gm in data set [3] (6 months). Moreover, the Body weight in data set [3] (7 months) was determined as 28.2 ± 2.5 gm; in data set [3] (Final (8 months)), 28.4±2.3 gm; in data set [3] (Final (8 months), listed as Morelloflavone), 28.4 ± 2.3 gm; in data set [3] (Initial (0 month), Ldlr−/−Apobec1−/− mice, N = 12), 22.3 ± 1.4 gm.

Source of the values: US20110217293A1, “Uses of morelloflavone” (priority 2008, published 2011).
